Source: article PMC2248166, “Quantitative peptide binding motifs for 19 human and mouse MHC class I molecules derived using positional scanning combinatorial peptide libraries” (Immunome Research, 2008)

What was measured:
[1] = molecular target: HLA A*3001 (Homo sapiens, UniProt P04439, D140H/D185E/E176W/F33S/G80R/H175R/K168Q/R138E/R41S); test: biochemical; format: binding
[2] = molecular target: HLA A*3201 (Homo sapiens, UniProt P04439, A270S/D101S/D185E/E176V/E277Q/F133L/G103R/G107R/G231S/H175R/I121M/I218V/I322F/K168Q/L105A/L300P/L318F/M331R/P208A/P217A/Q94H/R106L/R138Q/S129P/T104I/T323A/T345S/V100E/V321M/V358M); test: biochemical; format: binding
[3] = molecular target: HLA A*6802 (Homo sapiens, UniProt P04439, A269V/D140Y/D185E/E176V/E277Q/E87N/F33Y/G231S/I121R/I166T/I218V/L180W/L300P/L318F/N151K/P208A/P217A/Q86R/R138H/R169H/S129P/T345S/V36M); format: binding
[4] = molecular target: HLA B*0702 (Homo sapiens, UniProt P01889); format: binding; conditions: positional scanning combinatorial 9-mer library; normalized to 1.0 for the best residue at each position
[5] = molecular target: HLA B*0801 (Homo sapiens, UniProt P01889, A93T/A95T/D138N/E176V/E187T/K202T/Q94N/R180D/S35A/V36M/Y33D/Y91F); test: biochemical; format: binding
[6] = molecular target: HLA B*1501 (Homo sapiens, UniProt P01889, A329T/A93T/A95T/C349S/D201E/D98Y/E187L/E204Q/E69M/E70A/K202T/N87E/Q94N/R155S/R180W/S121R/S35A/S48A/V306I/V36M/Y140S/Y91S); test: biochemical; format: binding
[7] = molecular target: HLA B*1503 (Homo sapiens, UniProt P01889, A329T/A93T/A95T/C349S/D201E/D98Y/E187L/E204Q/K202T/N87E/Q94N/R155S/R180L/S121R/S35A/V306I/V36M/Y140S/Y91S); test: biochemical; format: binding
[8] = molecular target: HLA B*2705 (Homo sapiens, UniProt P01889, D138H/D201E/E176V/E204Q/G107R/H137Y/K202T/N104T/N87E/Q56L/Q94K/R106L/R155S/R180L/S101D/S121N/S48T/Y140D/Y33H/Y91C); format: binding; conditions: positional scanning combinatorial 9-mer library; normalized to 1.0 for the best residue at each position
[9] = molecular target: HLA B*3501 (Homo sapiens, UniProt P01889, A329T/A93T/A95T/C349S/D201E/D98Y/E176V/E187L/E204Q/E69T/I218V/K202T/L119I/Q94N/R155S/R180L/S121R/S35A/S48A/T118I/V127L/V306I/V36M/Y140S/Y91F); format: binding
[10] = molecular target: HLA B*5101 (Homo sapiens, UniProt P01889, A329T/A93T/A95T/C349S/D138N/D201E/D98Y/E187L/E204Q/E69T/G107R/I218V/K202T/L105A/L119W/N104I/Q94N/R106L/R155S/R180L/S101N/S121T/S35A/S48A/V306I/V36M/Y195H/Y91F); format: binding
[11] = molecular target: HLA B*5301 (Homo sapiens, UniProt P01889, A329T/A93T/A95T/C349S/D201E/D98Y/E176V/E187L/E204Q/E69T/G107R/I218V/K202T/L105A/L119I/N104I/Q94N/R106L/R155S/R180L/S101N/S121R/S35A/S48A/T118I/V127L/V306I/V36M/Y140S/Y91F); format: binding
[12] = molecular target: HLA B*5401 (Homo sapiens, UniProt P01889, A329T/C349S/D138N/D201E/E176V/E187T/E204Q/E69G/I76V/K202T/L119W/R155S/R180L/S121T/S35A/S48A/V127L/V306I/V36M/Y140L); format: binding
[13] = molecular target: HLA B*5801 (Homo sapiens, UniProt P01889, A329T/C349S/D201E/D98Y/E176V/E187L/E204Q/E69T/G107R/I218V/I90N/K202T/L105A/L119I/N104I/N87E/Q89R/Q94S/R106L/R155S/R180L/R86G/S101N/S121R/S35A/S48A/T118I/V127L/V306I/V36M/Y140S/Y91M); format: binding
[14] = molecular target: HLA B*5802 (Homo sapiens, UniProt P01889, A329T/C349S/D201E/D98Y/E176V/E187L/E204Q/E69T/G107R/I218V/I90N/K202T/L105A/N104I/N87E/Q89R/Q94S/R106L/R155S/R180L/R86G/S101N/S121W/S35A/S48A/V127L/V306I/V36M/Y140S/Y91M); format: binding
[15] = molecular target: H-2 D^b (Mus musculus, UniProt P01899); format: binding
[16] = molecular target: H-2 D^d (Mus musculus, UniProt P01900); format: binding
[17] = molecular target: H-2 K^k (Mus musculus, UniProt P04223); format: binding
[18] = molecular target: HLA A*0201 (Homo sapiens, UniProt P04439, D140Y/D185E/D98H/E176V/E277Q/G131W/G231S/I119V/I121R/I166T/I218V/L300P/L318F/N151K/N90K/P208A/P217A/Q86G/Q94H/R138H/R169H/T345S); conditions: positional scanning combinatorial 9-mer library; normalized to 1.0 for the best residue at each position

Chain of H-2 D^d (P01900 whole entry, looked up): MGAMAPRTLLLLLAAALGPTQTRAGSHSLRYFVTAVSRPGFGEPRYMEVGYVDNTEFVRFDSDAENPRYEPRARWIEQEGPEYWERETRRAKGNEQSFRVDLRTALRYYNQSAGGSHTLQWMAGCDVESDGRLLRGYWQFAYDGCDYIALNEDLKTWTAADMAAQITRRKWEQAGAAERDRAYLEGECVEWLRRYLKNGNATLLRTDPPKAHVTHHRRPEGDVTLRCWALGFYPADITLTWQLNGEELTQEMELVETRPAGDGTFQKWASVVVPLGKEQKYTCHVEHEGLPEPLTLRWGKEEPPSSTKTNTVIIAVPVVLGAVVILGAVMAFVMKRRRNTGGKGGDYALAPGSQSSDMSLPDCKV
Chain of H-2 K^k (P01887 21-119): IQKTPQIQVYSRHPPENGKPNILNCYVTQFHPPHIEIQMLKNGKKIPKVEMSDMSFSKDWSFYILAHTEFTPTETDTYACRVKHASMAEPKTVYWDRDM
Chain of H-2 K^k (P04223 22-369): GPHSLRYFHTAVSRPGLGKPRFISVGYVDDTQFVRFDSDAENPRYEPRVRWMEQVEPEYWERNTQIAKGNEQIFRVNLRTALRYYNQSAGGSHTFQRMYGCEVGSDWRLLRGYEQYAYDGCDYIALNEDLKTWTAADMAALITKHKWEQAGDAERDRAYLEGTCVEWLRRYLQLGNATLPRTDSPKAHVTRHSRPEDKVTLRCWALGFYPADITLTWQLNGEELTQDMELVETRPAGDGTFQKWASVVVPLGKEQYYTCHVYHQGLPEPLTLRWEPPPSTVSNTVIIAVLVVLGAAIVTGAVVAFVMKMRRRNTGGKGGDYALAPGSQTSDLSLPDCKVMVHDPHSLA
Chain of H-2 D^b (P01887 21-119): as the sequence (P01887 21-119) above
Chain of H-2 D^b (P01899 25-362): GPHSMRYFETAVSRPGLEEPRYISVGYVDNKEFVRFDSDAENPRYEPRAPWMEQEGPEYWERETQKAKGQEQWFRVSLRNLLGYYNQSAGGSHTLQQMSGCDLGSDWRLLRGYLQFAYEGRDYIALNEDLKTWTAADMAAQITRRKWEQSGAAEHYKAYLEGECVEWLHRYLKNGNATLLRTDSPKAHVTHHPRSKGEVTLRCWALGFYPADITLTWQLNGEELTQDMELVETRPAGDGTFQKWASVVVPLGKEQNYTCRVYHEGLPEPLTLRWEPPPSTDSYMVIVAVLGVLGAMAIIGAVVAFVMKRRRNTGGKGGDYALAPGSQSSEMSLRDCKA

Row | Sequence | Normalized average relative binding affinity (ARB), HLA A*3001 [1] | Normalized average relative binding affinity (ARB), HLA A*3201 [2] | Normalized average relative binding affinity (ARB), HLA A*6802 [3] | Normalized average relative binding affinity (ARB), HLA B*0702 [4] | Normalized average relative binding affinity (ARB), HLA B*0801 [5] | Normalized average relative binding affinity (ARB), HLA B*1501 [6] | Normalized average relative binding affinity (ARB), HLA B*1503 [7] | Normalized average relative binding affinity (ARB), HLA B*2705 [8] | Normalized average relative binding affinity (ARB), HLA B*3501 [9] | Normalized average relative binding affinity (ARB), HLA B*5101 [10] | Normalized average relative binding affinity (ARB), HLA B*5301 [11] | Normalized average relative binding affinity (ARB), HLA B*5401 [12] | Normalized average relative binding affinity (ARB), HLA B*5801 [13] | Normalized average relative binding affinity (ARB), HLA B*5802 [14] | Normalized average relative binding affinity (ARB), H-2 Db [15] | Normalized average relative binding affinity (ARB), H-2 Dd [16] | Normalized average relative binding affinity (ARB), H-2 Kk [17] | Normalized average relative binding affinity (ARB), HLA A*0201 [18]
1 | XWXXXXXXX [3064.0039] | 0.26 | 0.034 | 0.022 | 0.0052 | 0.024 | 0.027 | 0.0038 | 0.0022 | 0.015 | 0.050 | 0.0054 | 0.0040 | 0.0033 | 0.098 | 0.10 | 0.061 | 0.0069 | 0.0024
2 | XXAXXXXXX [3064.0041] | 0.0077 | 0.24 | 0.0051 | 0.0097 | 0.12 | 0.23 | 0.29 | 0.21 | 0.19 | 0.47 | 0.0065 | 0.00077 | 0.32 | 0.047 | 0.022 | 0.0028 | 0.0061 | 0.43
3 | XXCXXXXXX [3064.0042] | 0.0048 | 0.32 | 0.071 | 0.047 | 0.020 | 0.35 | 0.048 | 0.14 | 0.074 | 0.24 | 0.0065 | 0.015 | 0.11 | 0.37 | 0.098 | 0.0028 | 0.15 | 0.22
4 | XXDXXXXXX [3064.0043] | 0.0018 | 0.085 | 0.025 | 0.031 | 0.015 | 0.039 | 0.032 | 0.020 | 0.11 | 0.070 | 0.096 | 0.0033 | 0.11 | 0.047 | 0.022 | 0.012 | 0.059 | 0.46
5 | XXEXXXXXX [3064.0044] | 0.0031 | 0.14 | 0.046 | 0.052 | 0.034 | 0.040 | 0.044 | 0.071 | 0.073 | 0.070 | 0.031 | 0.0049 | 0.095 | 0.049 | 0.032 | 0.0030 | 0.27 | 0.037
6 | XXFXXXXXX [3064.0045] | 0.041 | 0.98 | 0.82 | 0.067 | 0.19 | 0.83 | 0.62 | 1.0 | 0.49 | 0.65 | 0.19 | 0.11 | 0.52 | 0.41 | 0.099 | 0.0072 | 0.39 | 0.63
